In patent US6699686B1, “Modified nuclear glucocorticoid receptor, fusion protein, and DNA fragments coding for said receptor and said fusion protein” (Association pour le Development de la Recherche en …, priority 1996, dated 2004):

Experiments:
wild-type hGR = target: T1, wild-type hGR (Homo sapiens, UniProt P04150); assay: Transcriptional activation of pTAT-tk-Luc luciferase reporter in transiently transfected CV-1 cells; assay type: cell-based; parameters: Luciferase activity % Wild type: concentration or dose not given beside the values; conditions: for Luciferase activity % Wild type: 24 h ligand, mean of three independent assays; for EC50: ligand concentration giving 50% of maximum transcriptional response
T1 construct: expressed in transfected cells
T1 sequence (P04150 1-777): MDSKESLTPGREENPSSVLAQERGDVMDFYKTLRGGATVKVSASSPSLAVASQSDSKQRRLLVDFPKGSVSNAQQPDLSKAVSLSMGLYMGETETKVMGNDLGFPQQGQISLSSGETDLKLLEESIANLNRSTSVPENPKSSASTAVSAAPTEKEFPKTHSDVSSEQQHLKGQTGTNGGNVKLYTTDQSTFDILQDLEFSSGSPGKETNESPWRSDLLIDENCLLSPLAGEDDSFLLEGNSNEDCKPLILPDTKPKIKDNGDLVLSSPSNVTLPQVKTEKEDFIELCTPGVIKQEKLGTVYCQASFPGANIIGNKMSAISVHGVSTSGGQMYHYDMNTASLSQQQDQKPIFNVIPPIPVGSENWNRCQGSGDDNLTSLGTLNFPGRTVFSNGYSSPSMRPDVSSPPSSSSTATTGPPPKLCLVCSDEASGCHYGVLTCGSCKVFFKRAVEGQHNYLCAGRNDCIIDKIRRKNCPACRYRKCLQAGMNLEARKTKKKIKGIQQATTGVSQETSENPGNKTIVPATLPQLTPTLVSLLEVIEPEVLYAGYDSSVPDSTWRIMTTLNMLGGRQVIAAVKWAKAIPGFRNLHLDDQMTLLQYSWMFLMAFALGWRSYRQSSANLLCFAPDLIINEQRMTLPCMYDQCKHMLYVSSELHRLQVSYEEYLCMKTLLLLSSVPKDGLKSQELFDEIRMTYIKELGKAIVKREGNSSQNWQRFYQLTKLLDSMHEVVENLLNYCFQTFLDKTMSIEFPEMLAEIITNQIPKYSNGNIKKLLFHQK
Description: The receptors were transiently expressed in GR-free CV-1 cells, conjointly with a luciferase reporter gene under the control of the tyrosine aminotransferase promoter (pTAT-tk-Luc).
After transfection, the cells were incubated for 24 hours with increasing concentrations of Dex, and they were then subjected to an assay of the β-galactosidase and luciferase activities, as described in “Materials and Methods”. The luciferase activity was normalized with the β-galactosidase activity, and the value obtained in the absence of ligand was subtracted for each point. The results were expressed as a percentage of the maximum luciferase activity obtained for each receptor. Each point is the mean±standard deviation of the mean of four separate determinations carried out in duplicate. […] The [^3H] steroid attached was measured after treatment with dextran-coated charcoal. The results presented are those for a single assay carried out in duplicate and representative of three separate assays.
Co-transfections were carried out and dose-response curves were constructed as described in FIG. 2. […] The assays of luciferase and β-galactosidase activity were carried out as described in “Materials and Methods”. The mean values of three independent assays are given in this table. nm=not measurable.
The CV-1 and Cos-7 cells were cultured in Dulbeco's modified Eagle's medium (DMEM) containing 10% (v/v) of fetal calf serum (FCS) (Gibco, Grand Island, N.Y.), in a humidified atmosphere containing 5% CO2. The HeLa cells were cultured under the same conditions. Transient transfections were carried out in 6-well multiplates according to the calcium phosphate procedure already described (42). A reference recombinant plasmid, pCMV-βgal, expressing bacterial β-galactosidase, was transfected conjointly with the receptor expression vector and the corresponding reporter gene so as to correct possible variations in he transfection efficiency. The precipitate was removed by washing after 24 hours, and the cells were kept in DMEX without FCS but containing hormone. After another 24 hours, the cells were rinsed and lysed for 15 minutes with 0.3 ml of lysis buffer [25 mM Tris.phosphate, pH 7.8, 8 mM […], 1% Triton X100, 10% glycerol (48)]. The corresponding luciferase activity as determined on an aliquot fraction (0.1 ml), by evaluation of the luminescence peak (for an integration time of 15 seconds), after injection of 0.1 ml of 1 mM luciferin in an LKB luminometer. The β-galactosidase was determined by the method modified by Bocquel et al. (49), for controlling the efficiency of each transfection.
The reporter gene pTAT-tk-Luc was provided by D. Gagne and was constructed as follows: an intermediate plasmid pTAT was first generated by insertion of the 966 bp EcoRI-BamHI segment obtained from pKT531 [offered freely by T. Grande (50)] into the corresponding sites of the vector pUC19 (Pharmacia). The fragment containing the sequence coding for the firefly luciferase and the thymidine kinase (tk) minimal promoter obtained from the Herpes simplex virus was isolated in the form of a BamHI fragment from pvit-tk-Luc (51) and inserted, downstream of the TAT promoter, into the corresponding site of pTAT. The reporter plasmid pGRE-tk-Luc was constructed by ligation of the fragment of HindIII-BglII digestion of pGRE-tk-CAT (52), which contains a synthetic GRE (AGAACAcagTGTTCT) upstream of the tk minimal promoter, into the HindIII-BglII sites of pLuc (53). The reporter gene p(17M)5-βGlob-Luc has been previously described (54). The reporter plasmid p(17M)5-tata-Luc was constructed from the plasmid p(17M)5-tata-CAT (55) by digestion with XhoI-BamHI and isolation of the fragment containing (17M5)-tata. This fragment was then inserted into the vector pGL2 (Promega) digested with the same restriction enzymes.

Cre-LBD[GR(I747/T)] = target: T2, Cre-LBD[GR(I747/T)] (Homo sapiens, UniProt P04150, I747T); assay: PCR test of recombinase activity in HeLa cells cotransfected with pCre-LBD[GR(I747/T)] and pRXRα(LNL); assay type: cell-based; conditions: ligand 10^−7 M, 72 hours
T2 construct: the region containing the mutated LBD of HG1 [aa 500-777]; Cre recombinase aa 1-343 (bacteriophage P1); F region of the human estrogen receptor (aa 553-595); expressed in transfected cells
T2 sequence (P04150 500-777 I747T): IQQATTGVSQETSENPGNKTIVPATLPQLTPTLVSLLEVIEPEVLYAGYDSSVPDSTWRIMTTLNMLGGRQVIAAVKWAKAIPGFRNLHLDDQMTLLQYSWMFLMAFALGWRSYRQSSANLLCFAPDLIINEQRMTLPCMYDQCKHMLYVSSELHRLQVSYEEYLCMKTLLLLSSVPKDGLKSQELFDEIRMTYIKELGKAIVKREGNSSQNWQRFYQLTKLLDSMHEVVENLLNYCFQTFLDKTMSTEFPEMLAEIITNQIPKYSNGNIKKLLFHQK
Description: [optionally cotransfected with 5 μg of the vector pRXRα^(LNL) for the HeLa cells] with the aid of an electroporator (Bio-Rad gene pulser), set at 200 V and 960 μF. The cells were then inoculated at 10^6 cells per 100 mm dish and treated, if necessary, with ligands.
The products of the reaction were separated on acrylamide gel and stained with ethidium bromide. Lane 1 corresponds to the loading of the 1 kb ladder size marker (GibcoBRL).

Compound	stimulation of the luciferase reporter with the wild-type GR (wild-type hGR)	Luciferase activity % Wild type (wild-type hGR)	EC50 (wild-type hGR)	recombinase activity (PCR band of recombinant fragment) (Cre-LBD[GR(I747/T)])
C[C@]12CCC(=O)C=C1CC[C@@H]1[C@@H]2[C@@H](O)C[C@]2(C=O)[C@@H](C(=O)CO)CC[C@@H]12 [Aldosterone, aldosterone]	as effective as Dex	90%	50 nM	only the fragment corresponding to the wild-type allele can be detected
C[C@]12C[C@H](O)[C@H]3[C@@H](CCC4=CC(=O)CC[C@@]43C)[C@@H]1CC[C@@H]2C(=O)CO [Corticosterone, corticosterone]	as effective as Dex	100%	70 nM	only the fragment corresponding to the wild-type allele can be detected
C[C@]12CCC(=O)C=C1CC[C@@H]1[C@@H]2[C@@H](O)C[C@@]2(C)[C@H]1CC[C@]2(O)C(=O)CO [Cortisol, cortisol]	as effective as Dex	110%		only the fragment corresponding to the wild-type allele can be detected
C[C@@H]1C[C@H]2[C@@H]3CCC4=CC(=O)C=C[C@]4(C)[C@@]3(F)[C@@H](O)C[C@]2(C)[C@@]1(O)C(=O)CO [Dexamethasone, dexamethasone]		100%		
